Reference: PMC5218480 (PLoS ONE, 2017)

System: MV-4-11 cells
Assay: Gene expression microarray analysis (Affymetrix PrimeView) and GSEA
Type: cell-based, human
Parameters: RFU PODN (11730768_x_at) / Fold change /veh PODN (11730768_x_at) / RFU LINC00158 (11744669_a_at) / Fold change /veh LINC00158 (11744669_a_at) / RFU DUSP10 (11751237_a_at) / Fold change /veh DUSP10 (11751237_a_at) / RFU ID3 (11757404_x_at) / Fold change /veh ID3 (11757404_x_at) / RFU PLEKHG5 (11737974_s_at) / Fold change /veh PLEKHG5 (11737974_s_at) / RFU LRRC4B (11730491_at) / Fold change /veh LRRC4B (11730491_at) / RFU GIMAP4 (11747438_a_at) / Fold change /veh GIMAP4 (11747438_a_at) / RFU KRT8 (11758183_x_at) / Fold change /veh KRT8 (11758183_x_at) / RFU CNN1 (11734310_a_at) / Fold change /veh CNN1 (11734310_a_at) / RFU VPS37D (11726825_at) / Fold change /veh VPS37D (11726825_at) / RFU C10orf10 (11716522_x_at) / Fold change /veh C10orf10 (11716522_x_at) / RFU KIR2DL2 /// KIR2DL4 /// KIR2DL5A /// KIR2DL5B /// KIR2DS1 /// KIR2DS2 /// KIR2DS3 /// KIR2DS4 /// KIR3DL3 /// KIR3DL3 /// KIR3DS1 (11738374_at) / Fold change /veh KIR2DL2 /// KIR2DL4 /// KIR2DL5A /// KIR2DL5B /// KIR2DS1 /// KIR2DS2 /// KIR2DS3 /// KIR2DS4 /// KIR3DL3 /// KIR3DL3 /// KIR3DS1 (11738374_at) / RFU C1QL1 (11718748_at) / Fold change /veh C1QL1 (11718748_at) / RFU TMPRSS4 (11747572_a_at) / Fold change /veh TMPRSS4 (11747572_a_at) / RFU HAMP (11756126_x_at) / Fold change /veh HAMP (11756126_x_at) / RFU RNFT2 (11725882_a_at) / Fold change /veh RNFT2 (11725882_a_at) / RFU NR4A2 (11747474_a_at) / Fold change /veh NR4A2 (11747474_a_at) / RFU ABCC12 (11746883_a_at) / Fold change /veh ABCC12 (11746883_a_at) / RFU TMEM136 (11760407_x_at) / Fold change /veh TMEM136 (11760407_x_at) / RFU CLDN22 /// WWC2 (11732394_at) / Fold change /veh CLDN22 /// WWC2 (11732394_at) / RFU HLA-DPB1 (11760878_x_at) / Fold change /veh HLA-DPB1 (11760878_x_at) / RFU SPINT1 (11716480_a_at) / Fold change /veh SPINT1 (11716480_a_at) / RFU GAP43 (11754022_s_at) / Fold change /veh GAP43 (11754022_s_at) / RFU A4GNT (11735810_at) / Fold change /veh A4GNT (11735810_at) / RFU PRB3 (11715151_x_at) / Fold change /veh PRB3 (11715151_x_at) / RFU TUBB4B (11761932_at) / Fold change /veh TUBB4B (11761932_at) / RFU CAPN14 (11732068_a_at) / Fold change /veh CAPN14 (11732068_a_at) / RFU TMCC2 (11721928_a_at) / Fold change /veh TMCC2 (11721928_a_at) / RFU IRGQ (11745062_a_at) / Fold change /veh IRGQ (11745062_a_at) / RFU FAM174B (11720279_a_at) / Fold change /veh FAM174B (11720279_a_at) / RFU TMPRSS4 (11748680_a_at) / Fold change /veh TMPRSS4 (11748680_a_at) / RFU FAM212B (11763350_a_at) / Fold change /veh FAM212B (11763350_a_at) / RFU PLEKHG5 (11743358_a_at) / Fold change /veh PLEKHG5 (11743358_a_at) / RFU ZSCAN30 (11745921_a_at) / Fold change /veh ZSCAN30 (11745921_a_at) / RFU CMKLR1 (11741424_a_at) / Fold change /veh CMKLR1 (11741424_a_at) / RFU LOC101060620 /// MAPK8IP1 (11723275_at) / Fold change /veh LOC101060620 /// MAPK8IP1 (11723275_at) / RFU SPTSSB (11747773_x_at) / Fold change /veh SPTSSB (11747773_x_at) / RFU PRSS12 (11739890_at) / Fold change /veh PRSS12 (11739890_at) / RFU BIN1 (11741810_x_at) / Fold change /veh BIN1 (11741810_x_at) / RFU WNT11 (11732464_a_at) / Fold change /veh WNT11 (11732464_a_at) / RFU C10orf10 (11716521_a_at) / Fold change /veh C10orf10 (11716521_a_at) / RFU C5orf56 (11738089_at) / Fold change /veh C5orf56 (11738089_at) / RFU CYB561 (11721691_x_at) / Fold change /veh CYB561 (11721691_x_at) / RFU ANKRD19P (11752326_a_at) / Fold change /veh ANKRD19P (11752326_a_at) / RFU OR2T12 /// OR2T33 /// OR2T8 (11738714_s_at) / Fold change /veh OR2T12 /// OR2T33 /// OR2T8 (11738714_s_at) / RFU VCAN (11748164_a_at) / Fold change /veh VCAN (11748164_a_at) / RFU JSRP1 (11732532_at) / Fold change /veh JSRP1 (11732532_at) / RFU KRTAP10-11 (11738290_x_at) / Fold change /veh KRTAP10-11 (11738290_x_at) / RFU MYO3A (11730013_a_at) / Fold change /veh MYO3A (11730013_a_at) / RFU EBF3 (11725865_a_at) / Fold change /veh EBF3 (11725865_a_at) / RFU CAMK2N1 (11719241_x_at) / Fold change /veh CAMK2N1 (11719241_x_at) / RFU C5orf56 (11738088_a_at) / Fold change /veh C5orf56 (11738088_a_at) / RFU OLFML3 (11715873_a_at) / Fold change /veh OLFML3 (11715873_a_at) / RFU LOC100653217 /// NTM (11731650_a_at) / Fold change /veh LOC100653217 /// NTM (11731650_a_at) / RFU MAPK11 (11762145_a_at) / Fold change /veh MAPK11 (11762145_a_at) / RFU FIZ1 (11724087_x_at) / Fold change /veh FIZ1 (11724087_x_at) / RFU OASL (11726364_x_at) / Fold change /veh OASL (11726364_x_at) / RFU SOX15 (11748057_x_at) / Fold change /veh SOX15 (11748057_x_at) / RFU CD79A (11719716_a_at) / Fold change /veh CD79A (11719716_a_at) / RFU HIST1H1D (11736915_at) / Fold change /veh HIST1H1D (11736915_at) / RFU CASKIN2 (11723855_a_at) / Fold change /veh CASKIN2 (11723855_a_at) / RFU LOC730098 (11760151_x_at) / Fold change /veh LOC730098 (11760151_x_at) / RFU OR4N2 (11742367_at) / Fold change /veh OR4N2 (11742367_at) / RFU PRRT2 (11749266_a_at) / Fold change /veh PRRT2 (11749266_a_at) / RFU SNX32 (11753110_a_at) / Fold change /veh SNX32 (11753110_a_at) / RFU CDHR5 (11726645_a_at) / Fold change /veh CDHR5 (11726645_a_at) / RFU RCAN1 (11760418_a_at) / Fold change /veh RCAN1 (11760418_a_at) / RFU FAM167A (11723789_a_at) / Fold change /veh FAM167A (11723789_a_at) / RFU FAM26E (11764081_at) / Fold change /veh FAM26E (11764081_at) / RFU ISYNA1 (11749810_s_at) / Fold change /veh ISYNA1 (11749810_s_at) / RFU ACY1 (11761880_at) / Fold change /veh ACY1 (11761880_at) / RFU 11764098_at / Fold change /veh 11764098_at / RFU SAMD14 (11745864_x_at) / Fold change /veh SAMD14 (11745864_x_at) / RFU NPB (11741838_a_at) / Fold change /veh NPB (11741838_a_at) / RFU TMPRSS6 (11731388_a_at) / Fold change /veh TMPRSS6 (11731388_a_at) / RFU KRTAP10-2 (11738614_at) / Fold change /veh KRTAP10-2 (11738614_at) / RFU ARHGAP8 /// PRR5-ARHGAP8 (11727945_x_at) / Fold change /veh ARHGAP8 /// PRR5-ARHGAP8 (11727945_x_at) / RFU KRTAP5-7 /// NADSYN1 (11734609_at) / Fold change /veh KRTAP5-7 /// NADSYN1 (11734609_at) / RFU RASL12 (11751679_a_at) / Fold change /veh RASL12 (11751679_a_at) / RFU CDKN2B (11736163_a_at) / Fold change /veh CDKN2B (11736163_a_at) / RFU PRF1 (11729649_at) / Fold change /veh PRF1 (11729649_at) / RFU, ZNF638 /// ZNF638-IT1 / Fold change vs veh, ZNF638 /// ZNF638-IT1 / RFU, PANK3 / Fold change vs veh, PANK3 / RFU, SH3YL1 / Fold change vs veh, SH3YL1 / RFU, ZEB2 / Fold change vs veh, ZEB2 / RFU, NRIP1 / Fold change vs veh, NRIP1 / RFU, PTTG1IP / Fold change vs veh, PTTG1IP / RFU, CAPN2 / Fold change vs veh, CAPN2 / RFU, MED14 / Fold change vs veh, MED14 / RFU, SNORA58 / Fold change vs veh, SNORA58 / RFU, C1orf63 / Fold change vs veh, C1orf63 / RFU, LRRFIP1 / Fold change vs veh, LRRFIP1 / RFU, NDUFAF7 / Fold change vs veh, NDUFAF7 / RFU, SLC12A2 / Fold change vs veh, SLC12A2 / RFU, IBTK / Fold change vs veh, IBTK / RFU, ESF1 / Fold change vs veh, ESF1 / Fold change vs veh, TMEM50B / RFU, TAOK1 / Fold change vs veh, TAOK1 / RFU, ACBD3 / Fold change vs veh, ACBD3 / RFU, TMA16 / Fold change vs veh, TMA16 / RFU, RWDD3 / Fold change vs veh, RWDD3 / RFU, BCAT1 / Fold change vs veh, BCAT1 / RFU, EDEM3 / Fold change vs veh, EDEM3 / RFU, TMEM33 / Fold change vs veh, TMEM33 / RFU, WDR75 / Fold change vs veh, WDR75 / RFU, AHCTF1 / Fold change vs veh, AHCTF1 / RFU, TFRC / Fold change vs veh, TFRC / RFU, ZDHHC17 / Fold change vs veh, ZDHHC17 / RFU, NOM1 / Fold change vs veh, NOM1 / RFU, ARL8B / Fold change vs veh, ARL8B / RFU, ZBTB11 / Fold change vs veh, ZBTB11 / RFU, TAMM41 / Fold change vs veh, TAMM41 / RFU, KIAA1704 /// LOC100996395 / Fold change vs veh, KIAA1704 /// LOC100996395 / RFU, ING1 / Fold change vs veh, ING1 / RFU, TRMT61B / Fold change vs veh, TRMT61B / RFU, FUBP3 / Fold change vs veh, FUBP3 / RFU, TP53 / Fold change vs veh, TP53 / RFU, TNKS2 / Fold change vs veh, TNKS2 / RFU, ZFP14 / Fold change vs veh, ZFP14 / RFU, ACTR2 / Fold change vs veh, ACTR2 / RFU, PPP3R1 / Fold change vs veh, PPP3R1 / RFU, PIK3R1 / Fold change vs veh, PIK3R1 / RFU, HNRNPA1 / Fold change vs veh, HNRNPA1 / RFU, RNF170 / Fold change vs veh, RNF170 / RFU, ZNF28 / Fold change vs veh, ZNF28 / RFU, RNGTT / Fold change vs veh, RNGTT / RFU, OGT / Fold change vs veh, OGT / RFU, BRD1 / Fold change vs veh, BRD1 / RFU, MARS / Fold change vs veh, MARS / RFU, ZNF655 / Fold change vs veh, ZNF655 / RFU, FAHD1 / Fold change vs veh, FAHD1 / RFU, BDP1 / Fold change vs veh, BDP1 / RFU, LRRCC1 / Fold change vs veh, LRRCC1 / RFU, ARID1A / Fold change vs veh, ARID1A / RFU, ZNF146 / Fold change vs veh, ZNF146 / RFU, ZNF330 / Fold change vs veh, ZNF330 / RFU, GPN3 / Fold change vs veh, GPN3 / RFU, C9orf123 / Fold change vs veh, C9orf123 / RFU, N4BP2L2 / Fold change vs veh, N4BP2L2 / RFU, ARFIP1 / Fold change vs veh, ARFIP1 / RFU, FAM179B / Fold change vs veh, FAM179B / RFU, BCL10 / Fold change vs veh, BCL10 / RFU, UHRF1BP1L / Fold change vs veh, UHRF1BP1L / RFU, BET1 / Fold change vs veh, BET1 / RFU, CNOT2 / Fold change vs veh, CNOT2 / RFU, ZNF268 / Fold change vs veh, ZNF268 / Fold change vs veh, ZNF507 / RFU, DGCR2 / Fold change vs veh, DGCR2 / RFU, WDSUB1 / Fold change vs veh, WDSUB1 / Fold change vs veh, HSP90B1 /// MIR3652 / RFU, ADSS / Fold change vs veh, ADSS / RFU, GK / Fold change vs veh, GK / RFU, ZNF148 / Fold change vs veh, ZNF148 / RFU, TAF9 / Fold change vs veh, TAF9 / RFU, SLC1A5 / Fold change vs veh, SLC1A5 / RFU, SLMO2 / Fold change vs veh, SLMO2 / RFU, ABCC4 / Fold change vs veh, ABCC4 / RFU, LOC101060439 /// RAP1B / Fold change vs veh, LOC101060439 /// RAP1B / RFU, RFX7 / Fold change vs veh, RFX7 / RFU, GTPBP10 / Fold change vs veh, GTPBP10 / RFU, CNEP1R1 / Fold change vs veh, CNEP1R1 / RFU, BIVM-ERCC5 /// ERCC5 / Fold change vs veh, BIVM-ERCC5 /// ERCC5 / RFU, ILF3 / Fold change vs veh, ILF3 / RFU 11762660_at / Fold change /veh 11762660_at / RFU VCAN (11757783_s_at) / Fold change /veh VCAN (11757783_s_at) / RFU DDX43 (11728927_at) / Fold change /veh DDX43 (11728927_at) / RFU KRT8 (11758188_x_at) / Fold change /veh KRT8 (11758188_x_at) / RFU NKD1 (11759106_at) / Fold change /veh NKD1 (11759106_at) / RFU SRD5A1 (11742802_a_at) / Fold change /veh SRD5A1 (11742802_a_at) / RFU TPSAB1 /// TPSB2 (11721975_s_at) / Fold change /veh TPSAB1 /// TPSB2 (11721975_s_at) / RFU GSTM3 (11746129_a_at) / Fold change /veh GSTM3 (11746129_a_at) / RFU IL23R (11737362_x_at) / Fold change /veh IL23R (11737362_x_at) / RFU TMEM51 (11727254_a_at) / Fold change /veh TMEM51 (11727254_a_at) / RFU PIWIL2 (11732686_x_at) / Fold change /veh PIWIL2 (11732686_x_at) / RFU ORM1 (11744905_x_at) / Fold change /veh ORM1 (11744905_x_at) / RFU CCDC152 (11743942_at) / Fold change /veh CCDC152 (11743942_at) / RFU ECM1 (11717891_a_at) / Fold change /veh ECM1 (11717891_a_at) / RFU IL23R (11748794_a_at) / Fold change /veh IL23R (11748794_a_at) / RFU TNFAIP8L3 (11732012_x_at) / Fold change /veh TNFAIP8L3 (11732012_x_at) / RFU MBOAT4 (11741988_at) / Fold change /veh MBOAT4 (11741988_at) / RFU 11764193_at / Fold change /veh 11764193_at / RFU TMEM53 (11763286_at) / Fold change /veh TMEM53 (11763286_at) / RFU MAGEB2 (11727129_at) / Fold change /veh MAGEB2 (11727129_at) / RFU TMEM200A (11744735_a_at) / Fold change /veh TMEM200A (11744735_a_at) / RFU CCDC152 (11751479_a_at) / Fold change /veh CCDC152 (11751479_a_at) / RFU FAM211A (11726209_a_at) / Fold change /veh FAM211A (11726209_a_at) / RFU RGS16 (11746705_a_at) / Fold change /veh RGS16 (11746705_a_at) / RFU VCAN (11755009_s_at) / Fold change /veh VCAN (11755009_s_at) / RFU RHOB (11743442_s_at) / Fold change /veh RHOB (11743442_s_at) / RFU RGS16 (11720943_a_at) / Fold change /veh RGS16 (11720943_a_at) / RFU RGS16 (11720944_at) / Fold change /veh RGS16 (11720944_at) / RFU, VPS4B / Fold change vs veh, VPS4B / RFU, CREB1 / Fold change vs veh, CREB1 / RFU, DNAJC13 / Fold change vs veh, DNAJC13 / RFU, GNAQ / Fold change vs veh, GNAQ / RFU, CDK5R1 / Fold change vs veh, CDK5R1 / RFU, ZRANB3 / Fold change vs veh, ZRANB3 / RFU, CUL4A / Fold change vs veh, CUL4A / RFU, CCNY / Fold change vs veh, CCNY / RFU, UFL1 / Fold change vs veh, UFL1 / RFU, COG3 / Fold change vs veh, COG3 / RFU, DIAPH2 / Fold change vs veh, DIAPH2 / RFU, SKA2 / Fold change vs veh, SKA2 / RFU, AFF3 / Fold change vs veh, AFF3 / RFU, LMF1 / Fold change vs veh, LMF1 / RFU, IPO11 / Fold change vs veh, IPO11 / RFU, DFFB / Fold change vs veh, DFFB / RFU, FOXP1 / Fold change vs veh, FOXP1 / RFU, CARD8 / Fold change vs veh, CARD8 / RFU, STRN3 / Fold change vs veh, STRN3 / RFU, ADK / Fold change vs veh, ADK / RFU, RASSF2 / Fold change vs veh, RASSF2 / RFU, WIPF1 / Fold change vs veh, WIPF1 / RFU, LARP1B / Fold change vs veh, LARP1B / RFU, RASA1 / Fold change vs veh, RASA1 / RFU, RB1 / Fold change vs veh, RB1 / RFU, PPFIA1 / Fold change vs veh, PPFIA1 / RFU, MAT2A / Fold change vs veh, MAT2A / RFU, CCT5 / Fold change vs veh, CCT5 / RFU, WDR92 / Fold change vs veh, WDR92 / RFU, CUX1 / Fold change vs veh, CUX1 / RFU, TTC7A / Fold change vs veh, TTC7A / RFU, TMEM135 / Fold change vs veh, TMEM135 / RFU, DEPTOR / Fold change vs veh, DEPTOR / RFU, CPM / Fold change vs veh, CPM / RFU, DNAJB6 / Fold change vs veh, DNAJB6 / RFU, CACNA2D3 / Fold change vs veh, CACNA2D3 / RFU, DTX4 / Fold change vs veh, DTX4 / RFU, TFCP2 / Fold change vs veh, TFCP2 / RFU, GMCL1 /// GMCL1P1 / Fold change vs veh, GMCL1 /// GMCL1P1 / RFU, AEBP2 / Fold change vs veh, AEBP2 / RFU, SNHG1 /// SNORD22 /// SNORD25 /// SNORD26 /// SNORD27 /// SNORD28 /// SNORD29 /// SNORD31 / Fold change vs veh, SNHG1 /// SNORD22 /// SNORD25 /// SNORD26 /// SNORD27 /// SNORD28 /// SNORD29 /// SNORD31 / Fold change (Aza/veh), C12orf56 (ProbeSet 11735607_a_at) / Fold change (ACY-1035/veh), C12orf56 (ProbeSet 11735607_a_at) / Fold change (Aza/veh), FGFR1OP (ProbeSet 11751329_s_at) / Fold change (ACY-1035/veh), FGFR1OP (ProbeSet 11751329_s_at) / Fold change (Aza/veh), VPS36 (ProbeSet 11739960_a_at) / Fold change (ACY-1035/veh), VPS36 (ProbeSet 11739960_a_at) / RFU SYPL1 (11715823_x_at) / Fold change /veh SYPL1 (11715823_x_at) / RFU IGFBP7 (11715501_s_at) / Fold change /veh IGFBP7 (11715501_s_at) / RFU REEP3 (11722064_at) / Fold change /veh REEP3 (11722064_at) / RFU IGLL1 (11728026_x_at) / Fold change /veh IGLL1 (11728026_x_at): dose or concentration left out as unconfirmed
Conditions: MV-4-11 cells, 48 hours

`Nc1ccc(-c2cccs2)cc1NC(=O)c1ccc2c(c1)cc(C1CC1)n2CCN1CCOCC1` [ACY-1035] was tested, and the “RFU C5orf56 (11738088_a_at)” value was 66.78 RFU.
